Assay results: the supplement of paper PMC8253809

What was measured:
Assay in all cases: area under dose-response curve of % growth inhibition (log2 RLU vs DMSO / staurosporine), 1e-11 to 1e-4 M (% x log10 M); higher = more growth inhibition
DIPGX29 = system: DIPGX29 (H3.3 K27M diffuse intrinsic pontine glioma line)
Procedure, shortened: (§1)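 Patient-derived pHGG/DIPG cell lines and astrocytes were plated in 384-well plates coated with 1% Geltrex and treated in triplicate with a 10-point threefold dilution series whose mean top concentration was 35 μM, for 7 days (3 days for iAstro) at 37 °C and 5% CO2. CellTiter-Glo luminescence was log2-transformed and scaled on each plate to % activity between solvent and positive controls. Area under the curve came from the trapezoid rule applied to a fitted log-logistic curve, or to a smoothing spline where the sigmoid fit failed.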

DIPGX37 = system: DIPGX37 (H3.3 K27M diffuse intrinsic pontine glioma line)
Procedure, shortened: as §1

HGGX39 = system: HGGX39 (paediatric high-grade glioma line)
Procedure, shortened: as §1

HGGX6 = system: HGGX6 (H3.3 G34R paediatric high-grade glioma line)
Procedure, shortened: as §1

SMILES | area under dose-response curve (DIPGX29) | area under dose-response curve (DIPGX37) | area under dose-response curve (HGGX39) | area under dose-response curve (HGGX6)
Nc1ncnc2c1c(COc1cccc(Cl)c1)nn2C1CCOCC1 | 10 | 32.2 | 23.5 | 14.3
O=C(O)c1ccc(CN2CCC(CN[C@@H]3C[C@H]3c3ccccc3)CC2)cc1 | 1.9 | 20.1 | 2.17 | 0.903
CN(N=O)C(=O)N[C@H]1C(O)O[C@H](CO)[C@@H](O)[C@@H]1O (mixture of isomers) [STREPTOZOSIN] | 11 | 8.39 | 7.25 | 5.51
Nc1ncn([C@@H]2O[C@H](CO)[C@@H](O)[C@H]2O)c(=O)n1 [5-AZACYTIDINE] | 12.5 | 18.2 | 17.6 | 12.1
Nc1nc(=O)n([C@H]2C[C@H](O)[C@@H](CO)O2)cc1F [5-FLUORODEOXYCYTIDINE] | 42.2 | 10.7 | 39.7 | 28.8
O=c1[nH]cc(F)c(=O)[nH]1 [5-FLUOROURACIL] | 17.6 | 4.4 | 10.6 | 25.2
COc1cc2c(cc1OCCCN1CCCC1)N=C(N)C21CCC1 [A-366] | 9.92 | 19 | 9.97 | 19.9
CC(=O)O[C@H]1CC[C@@]2(C)C(=CC[C@@H]3[C@@H]2CC[C@]2(C)C(c4cccnc4)=CC[C@@H]32)C1 [ABIRATERONE ACETATE] | 0 | 20.1 | 6.95 | 0
CCC1(c2ccc(N)cc2)CCC(=O)NC1=O (stereo not drawn) [AMINOGLUTETHIMIDE] | 7.58 | 4.75 | 3.33 | 14.3
CC(C)(C#N)c1cc(Cn2cncn2)cc(C(C)(C)C#N)c1 [ANASTROZOLE] | 7.52 | 5.71 | 1.48 | 1.46
CO[C@H]1O[C@@H]2O[C@@]3(C)CC[C@H]4[C@H](C)CC[C@@H]([C@H]1C)[C@@]24OO3 [ARTEMETHER] | 5.53 | 3.95 | 14.4 | 17.6
CCN(C(=O)CO)[C@H]1CN(/C(=N\C#N)Nc2cccc(OC(F)F)c2)N=C1c1ccc(Cl)c(Cl)c1 [BAY598] | 18.1 | 16.3 | 10.8 | 8.24
Cn1cc(CCn2cnc(-c3cnn(C)c3)c2-c2ccc(C#N)cc2)cn1 [BAZ2-ICR] | 8.96 | 22.9 | 16.5 | 14.6
C[C@H]1C[C@H]2[C@@H]3CCC4=CC(=O)C=C[C@]4(C)[C@@]3(F)[C@@H](O)C[C@]2(C)[C@@]1(O)C(=O)CO [BETAMETHASONE] | 23.1 | 10.5 | 11.8 | 16.4
C=C(c1ccc(C(=O)O)cc1)c1cc2c(cc1C)C(C)(C)CCC2(C)C [BEXAROTENE] | 21.8 | 6.14 | 28.4 | 13.2
COc1cc(-c2cn(C)c(=O)c3cnccc23)c(OC)cc1CN(C)C [BI-9564] | 12.6 | 11.6 | 5.33 | 3.53
C/C(=C\C(=O)Nc1ccccc1C(=O)O)c1ccc2ccccc2c1 [BIBR-1532] | 0 | 20.5 | 0 | 8.79
CC(=O)Oc1ccc(C(c2ccc(OC(C)=O)cc2)c2ccccn2)cc1 [BISACODYL] | 2.56 | 11.1 | 27.8 | 10.4
O=c1[nH]c(=O)n([C@H]2C[C@H](O)[C@@H](CO)O2)cc1/C=C/Br [BRIVUDINE] | 6.05 | 9.7 | 1.13 | 2.8
CCCC1O[C@@H]2C[C@H]3[C@@H]4CCC5=CC(=O)C=C[C@]5(C)[C@H]4[C@@H](O)C[C@]3(C)[C@]2(C(=O)CO)O1 (stereo partly drawn) [BUDESONIDE] | 35.7 | 19.3 | 11.8 | 6.8
CCCCCCNC(=O)n1cc(F)c(=O)[nH]c1=O [CARMOFUR] | 20.1 | 30.3 | 20.2 | 15.3

SMILES | area under dose-response curve (DIPGX29) | area under dose-response curve (DIPGX37) | area under dose-response curve (HGGX39) | area under dose-response curve (HGGX6)
O=C(O)CCCc1ccc(N(CCCl)CCCl)cc1 [CHLORAMBUCIL] | 25.8 | 15.9 | 20.8 | 18.3
Nc1nc(Cl)nc2c1ncn2[C@H]1C[C@H](O)[C@@H](CO)O1 [CLADRIBINE] | 54.8 | 32.4 | 40.8 | 39.3
Nc1ccn([C@@H]2O[C@H](CO)[C@@H](O)[C@@H]2O)c(=O)n1 [CYTARABINE] | 42.9 | 23.3 | 30.6 | 15.6
CN(C)/N=N/c1[nH]cnc1C(N)=O [DACARBAZINE] | 6.29 | 17.2 | 19.3 | 16.5
Nc1ncn([C@H]2C[C@H](O)[C@@H](CO)O2)c(=O)n1 [DECITABINE] | 4.32 | 9.77 | 7.33 | 3.81
CC(=O)O[C@@]12CO[C@@H]1C[C@H](O)[C@@]1(C)C(=O)[C@H](O)C3=C(C)[C@@H](OC(=O)[C@H](O)[C@@H](NC(=O)OC(C)(C)C)c4ccccc4)C[C@@](O)([C@@H](OC(=O)c4ccccc4)[C@H]21)C3(C)C [DOCETAXEL] | 55.8 | 56 | 120 | 86.7
COc1cc([C@@H]2c3cc4c(cc3[C@@H](O[C@@H]3O[C@@H]5CO[C@@H](C)O[C@H]5[C@H](O)[C@H]3O)[C@H]3COC(=O)[C@H]23)OCO4)cc(OC)c1O [ETOPOSIDE] | 39.6 | 14.2 | 33.1 | 25.4
Cc1cc(C#N)cc(C)c1Oc1nc(Nc2ccc(C#N)cc2)nc(N)c1Br [ETRAVIRINE] | 24.2 | 10.8 | 18.9 | 9.91
CS(=O)(=O)c1ccc([C@@H](O)[C@@H](CF)NC(=O)C(Cl)Cl)cc1 [FLORFENICOL] | 11.3 | 10.6 | 15.6 | 4.4
Nc1nc(F)nc2c1ncn2[C@@H]1O[C@H](COP(=O)(O)O)[C@@H](O)[C@@H]1O [FLUDARABINE PHOSPHATE] | 32.1 | 39.7 | 10.3 | 6.46
N[C@H](CCC(=O)N[C@@H](Cc1c[nH]c2ccccc12)C(=O)O)C(=O)O [GOLOTIMOD] | 8.23 | 15.2 | 0.705 | 5.25
CCCOc1ccn2c(C(C)=O)cc(-c3ccccc3S(C)(=O)=O)c2c1 [GSK2801] | 19.1 | 8.52 | 10.4 | 21.4
COc1ccccc1C(=O)Nc1cc2c(cc1N1CCCCC1)n(C)c(=O)n2C [GSK-5959] | 8.32 | 76.9 | 41.9 | 45.8
c1ccc([C@@H]2C[C@H]2NC2CCNCC2)cc1 [GSK-LSD1] | 0 | 5.85 | 0 | 0
Nc1ncn([C@H]2C[C@H](OP(=O)(O)OC[C@H]3O[C@@H](n4cnc5c(=O)[nH]c(N)nc54)C[C@@H]3O)[C@@H](CO)O2)c(=O)n1 [GUADECITABINE] | 0 | 16.4 | 0 | 0
CCN(CCO)CCCC(C)Nc1ccnc2cc(Cl)ccc12 (stereo not drawn) [HYDROXYCHLOROQUINE] | 5.15 | 8.17 | 0 | 1.95
CCC(=O)N1CCOc2c(cc(-c3ccc(OC)c(OC)c3)cc2OC[C@H]2CCCN(C)C2)C1 [I-CBP112] | 14.1 | 18 | 2.35 | 16.4
COc1cc(C(C)=O)ccc1OCCCN1CCC(c2noc3cc(F)ccc23)CC1 [ILOPERIDONE] | 15.1 | 13.2 | 10.3 | 5.98
O=C(O)c1ccc(O)c2ncccc12 [IOX1] | 3.7 | 9.36 | 2.63 | 5.89
O=C(O)CNC(=O)c1c(O)c2ccccc2n(Cc2ccccc2)c1=O [IOX2] | 9.33 | 6.07 | 12.7 | 12.6
CCOC(=O)c1ccnc(CNCC(=O)N(CC)CCN(C)C)c1 [KDM5-C70] | 9.21 | 3.66 | 7.74 | 2.7

SMILES | area under dose-response curve (DIPGX29) | area under dose-response curve (DIPGX37) | area under dose-response curve (HGGX39) | area under dose-response curve (HGGX6)
Cc1oncc1C(=O)Nc1ccc(C(F)(F)F)cc1 [LEFLUNOMIDE] | 5.84 | 2.94 | 4.82 | 2.22
CC(N[C@H]1C[C@@H]1c1ccccc1)c1ccc2c(c1)OCCO2 (stereo partly drawn) [LSD1-C76] | 6.56 | 24 | 12 | 7.75
CN(Cc1cnc2nc(N)nc(N)c2n1)c1ccc(C(=O)N[C@@H](CCC(=O)O)C(=O)O)cc1 [METHOTREXATE] | 44.1 | 30.5 | 39.9 | 58.8
Clc1ccc(C(c2ccccc2Cl)C(Cl)Cl)cc1 (stereo not drawn) [MITOTANE] | 12.9 | 16.1 | 8.7 | 12.5
C[C@@H]1C[C@H]2[C@@H]3CCC4=CC(=O)C=C[C@]4(C)[C@@]3(Cl)[C@@H](O)C[C@]2(C)[C@@]1(OC(=O)c1ccco1)C(=O)CCl [MOMETASONE FUROATE] | 42.1 | 40.5 | 20.8 | 8.37
CC(C)Oc1ccc(-c2c[nH]cc2CN(C)CCN)cc1 [MS023] | 10.9 | 10.6 | 8.58 | 14.7
CNCCN1CCC(OCc2ccccc2)CC1 [MS049] | 19.1 | 10.6 | 9.22 | 11.9
COc1cc(C#N)ccc1S(=O)(=O)Nc1ccc2c(c1)cc(C)c(=O)n2C [NI-57] | 13.6 | 7.6 | 22.9 | 15.9
CC1CS(=O)(=O)CCN1/N=C/c1ccc([N+](=O)[O-])o1 (stereo not drawn) [NIFURTIMOX] | 18.2 | 17.9 | 23.6 | 22
Cc1cn(-c2cc(NC(=O)c3ccc(C)c(Nc4nccc(-c5cccnc5)n4)c3)cc(C(F)(F)F)c2)cn1 [NILOTINIB] | 14.3 | 18.9 | 14.9 | 16.8
Cc1ncc(CNC(=O)N(CCCl)N=O)c(N)n1 [NIMUSTINE] | 1.11 | 0 | 1.19 | 1.35
COc1ccc2c(c1OC)C(=O)O[C@@H]2[C@H]1c2c(cc3c(c2OC)OCO3)CCN1C [NOSCAPINE] | 3.97 | 4.1 | 3.21 | 3.61
CN1CCN(c2ccc(-c3cccc(CN4CCOCC4)c3)cc2NC(=O)c2c[nH]c(=O)cc2C(F)(F)F)CC1 [OICR-9429] | 6.88 | 4.44 | 6.53 | 15.6
Cc1ccc(Nc2nccc(N(C)c3ccc4c(C)n(C)nc4c3)n2)cc1S(N)(=O)=O [PAZOPANIB] | 14.4 | 12.6 | 14.8 | 16.8
Nc1nc2[nH]cc(CCc3ccc(C(=O)N[C@@H](CCC(=O)O)C(=O)O)cc3)c2c(=O)[nH]1 [PEMETREXED] | 34.6 | 9.28 | 23.2 | 12.7
OC[C@H]1O[C@@H](n2cnc3c2N=CNC[C@H]3O)C[C@@H]1O [PENTOSTATIN] | 3.92 | 10.9 | 10 | 5.39
COc1ccccc1S(=O)(=O)Nc1ccc2c(c1)CN(C)C(=O)N2 [PFI-1] | 23.7 | 27.8 | 20.6 | 17.1
O=C(/C=C/N1C[C@H]2C[C@@H]1CN2c1ccccn1)c1ccccc1O [PFI-3] | 9.58 | 20.6 | 10.6 | 11.5
COc1ccccc1C(=O)Nc1cc2c(cc1N1CCCC1)n(C)c(=O)n2C [PFI-4] | 21.9 | 6.98 | 20.5 | 18.2
CC(C)N(C[C@H]1O[C@@H](n2cnc3c(N)ncnc32)[C@H](O)[C@@H]1O)[C@H]1C[C@@H](CCc2nc3cc(C(C)(C)C)ccc3[nH]2)C1 [PINOMETOSTAT] | 6.21 | 14.5 | 0.36 | 4.37
